The values that follow come from patent publication US8629242B2, “Methods of inhibiting calcineurin with ApoE analogs” (Cognosci, Inc., priority 2007, dated 2014).

In one assay the test system is peritoneal macrophages. Briefly: In vitro LPS+IFN-γ challenge of macrophages from COG 133-treated EAE mice. Type of assay: cell-based. Conditions: macrophages collected dpi 35 from treated mice, vs saline-treated mice, p<0.001. Here is the method:
FIG. 4. In vivo exposure to COG 133 suppressed in vitro production of inflammatory effectors by peritoneal macrophages. TNF-α (A) and IL-6 (B) were measured by ELISA, and nitrite in culture medium was measured by a Sievers NO Analyzer (C). Statistical analysis was performed by two-tailed student's t test and significance was shown as ** (p<0.01) and *** (p<0.001).
To examine the effect of COG 133 (SEQ ID NO: 1) treatment on activation of macrophages in EAE mice, macrophages were collected from a subset of saline and COG 133-treated mice on dpi 35 and then challenged in vitro with the immune stimulators lipopolysaccharide and interferon-γ (LPS+IFN-γ). Nitrite in culture medium was measured by a Sievers NO Analyzer and TNF-α and IL-6 were measured by ELISA.

The next assay deals with T1, calcineurin (PP2B) (Homo sapiens, UniProt Q08209).
T1 construct: from tissue; host or cells: human brain lysate
Briefly: Immunoprecipitation with biotin-COG 133 conjugate, blot probed for calcineurin. Type of assay: binding. Conditions: human brain lysate or primary glial culture; biotin-COG 133 bead conjugate. Here is the method: FIG. 14. ApoE analogs bind directly to calcineurin and inhibit its activity. […] (B) Immunoprecipitation of human brain lysate with a biotin-COG 133 conjugate. Lane 1=markers; lane 2=clear bead; lane 3=biotin-COG 133 bead conjugate; and lane 4=10 μg lysate. (C) Immunoprecipitation of different glial cultures with a biotin-COG 133 conjugate. Lane 1=markers; lane 2=astrocyte; lane 3=microglia; and lane 4=oligodendrocyte precursor cells (OPC). Blots in B and C were probed for calcineurin (PP2B).
Calcineurin activity was measured in a cell-free in vitro assay in the presence of various concentrations of COG 133 (SEQ ID NO: 1), COG 112 (SEQ ID NO: 5), COG 68 (SEQ ID NO: 7), COG 125 (Ac-AS(Aib)LRKL(Aib)KR—COOH; SEQ ID NO: 8), or antennapedia (antp), the prefix peptide for COG 112. […] Using a BioMol Calcineurin Phosphatase Activity Kit (Cat. #AK-804), the assay was conducted according to manufacturer's instructions. […] This inhibition of calcineurin activity by ApoE analogs is mediated by a direct interaction of the ApoE analog with the phosphatase.

Assay [1] concerns cuprizone-induced demyelination in corpus callosum. Briefly: Cuprizone-induced demyelination model. It counts as in vivo, C57BL/6J male mice. Here is the method:
FIG. 6. COG 112 promotes remyelination of the corpus callosum in a cuprizone model of demyelination. C57BL/6J male mice were fed with 0.2% cuprizone-containing diet for 5 weeks to induce complete demyelination in the corpus callosum. Starting from week 6, cuprizone was removed and the animals were treated with either vehicle or COG 112 (1 mg/kg) by i.p. injection three times a week for 4 weeks. Myelination in corpus callosum was evaluated on a scale from 0 to 3 after staining brain sections with Luxol Fast Blue (LFB). The data were collected from 4 animals of each group and 2 sections from each animal. A non-parametric Mann-Whitney test was used to compare differences between groups. Panels A and B (100×) are representative pictures of LFB-stained sections from vehicle- and COG 112-treated animals, respectively. Panels C and D (400×) are representative sections labeled with anti-GST-π-FITC antibody (marker for mature oligodendrocytes) from vehicle- and COG 112-treated animals, respectively.
In an EAE model, treatment with COG 112 reduced demyelination in the spinal cord (Example 1). Therefore, we tested the effect of COG peptides on remyelination in a cuprizone-induced demyelination model. C57BL/6J male mice were fed with 0.2% cuprizone-containing mouse chow for 5 weeks to cause demyelination. […]

In assay [2] the test system is NFAT translocation in BV2 cells. Briefly: LPS-induced NFAT translocation in BV2 cells. Particulars: 2 μM, LPS 10 ng/mL, 15 min. Type of assay: cell-based, murine. An excerpt:
FIG. 15. ApoE analog inhibits LPS-induced NFAT translocation. Murine microglial cell line, BV2 cells were stimulated with LPS in the presence or absence of COG 112. NFAT (green signal) and nuclear label (red signal). (A) Untreated cultures; (B) LPS-treated cultures; (C) LPS+COG 112-treated cultures; (D) NFAT translocation was quantified by the fluorescence intensity of green fluorescence in the nucleus defined by yellow area.
Calcineurin dephosphorylates the transcription factor NFAT, which leads to its activation and translocation to the nucleus. Activation of calcineurin and subsequent activation of NFAT is induced by inflammatory stimuli. To further examine the effect of ApoE analogs on calcineurin signaling, murine microglial cell line, BV2 cells were stimulated with LPS (10 ng/mL) in the absence and presence of COG 112 (2 μM). After incubation for 15 min at 37° C., the cells were washed and fixed with 4% formaldehyde. After staining with 1/100 anti-NFAT antibody coupled with Alexaflour and then counterstained with hoescht nuclear dye, NFAT translocation was quantified by the fluorescence intensity of Alexaflour in the nucleus.

`CC(=O)N[C@@H](CC(C)C)C(=O)N[C@@H](CCCNC(=N)N)C(=O)N[C@H](C(=O)N[C@@H](CCCNC(=N)N)C(=O)N[C@@H](CC(C)C)C(=O)N[C@@H](C)C(=O)N[C@@H](CO)C(=O)N[C@@H](Cc1c[nH]cn1)C(=O)N[C@@H](CC(C)C)C(=O)N[C@@H](CCCNC(=N)N)C(=O)N[C@@H](CCCCN)C(=O)N[C@@H](CC(C)C)C(=O)N[C@@H](CCCNC(=N)N)C(=O)N[C@@H](CCCCN)C(=O)N[C@@H](CCCNC(=N)N)C(=O)N[C@@H](CC(C)C)C(=O)N[C@@H](CC(C)C)C(N)=O)C(C)C` [COG 133]: in the assay with peritoneal macrophages, the “release of IL-6” value is “significantly lower response”, the “release of NO” value is listed as “significantly lower levels of NO” and the “release of TNF-α” value is “significantly lower response”. In addition, the “binding of calcineurin (PP2B) in immunoprecipitates” value at calcineurin (PP2B) is reported as “bound”.

In the case of “Ac-RQIKIWFQNRRMKWKKCLRVRLASHLRKLRKRLL-NH2 [COG 112]”, the “LFB staining of myelin within corpus callosum” value in assay [1] (1 mg/kg i.p. three times a week for 4 weeks after 5 weeks cuprizone) is on record as “significantly increased”. In addition, the “GST-π+ cells (mature oligodendrocytes) within the corpus callosum” value in assay [1] (1 mg/kg i.p. three times a week for 4 weeks, vs vehicle) was “Significantly more”. Moreover, the “NFAT translocation to the nucleus” value in assay [2] is on record as “prevented NFAT translocation”.
